Earlier results as cited in patent US8729024B2, “Targeted delivery of pharmaceutical compounds” (The Resesarch Foundation of State University of New York, priority 2006, dated 2014).

Test system: animal models of Duchenne muscular dystrophy (DMD), multiple sclerosis, myasthenia gravis, hearing loss and traumatic nerve injury

## CC(=O)N[C@@H](CC(C)C)C(=O)N[C@@H](CC(C)C)C(=O)N[C@H](C=O)CCCNC(=N)N [leupeptin]
  therapeutic effect in animal models: therapeutic benefit
